Test results as given in patent publication US6093409A (Societe L'Oreal S.A., priority 1996, dated 2000).

Assay: "Hp-squalene" anti(singlet oxygen ^1 O2) test
Type: biochemical
Settings: 0.03% solutions

SMILES | % INHIBITION
COc1cc2c(CCNC(C)=O)c[nH]c2cc1O [6-Hydroxymelatonin] | ~78%
CC1=C(/C=C/C(C)=C/C=C/C(C)=C/C=C/C=C(C)/C=C/C=C(C)/C=C/C2=C(C)C(=O)[C@@H](O)CC2(C)C)C(C)(C)C[C@H](O)C1=O [Astaxanthin] | 34%
CC1=C(/C=C/C(C)=C/C=C/C(C)=C/C=C/C=C(C)/C=C/C=C(C)/C=C/C2=C(C)C(=O)CCC2(C)C)C(C)(C)CCC1=O [Cantaxanthin] | 67%
O=c1c(O)c(-c2ccc(O)c(O)c2)oc2cc(O)cc(O)c12 [Quercetin] | 72%
C[C@@H]1O[C@@H](OC[C@H]2O[C@@H](Oc3c(-c4ccc(O)c(O)c4)oc4cc(O)cc(O)c4c3=O)[C@H](O)[C@@H](O)[C@@H]2O)[C@H](O)[C@H](O)[C@H]1O [Rutin] | 51%
CC1=C(/C=C/C(C)=C/C=C/C(C)=C/C=C/C=C(C)/C=C/C=C(C)/C=C/C2=C(C)CCCC2(C)C)C(C)(C)CCC1 [β-Carotene] | 62%

Same assay, conditions: 0.03% solutions, comparison in words

SMILES | percentage of inhibition compared with melatonin and the other reference singlet-oxygen inhibitors
COc1cc2c(CCNC(C)=O)c[nH]c2cc1O [6-Hydroxymelatonin] | higher than that obtained for melatonin and the other reference singlet-oxygen inhibitors
